Experimental data: patent publication US20110282056A1, “PROTEIN KINASE INHIBITORS AND USE THEREOF” (priority 2008, published 2011)

Columns and labels:
Format in all cases: biochemical
VEGFR3 = target: T1, VEGFR3 (Homo sapiens, UniProt P35916); experiment: VEGFR3 enzyme activity assay (Caliper LC3000 mobility shift); settings: 400 uM ATP (Km), 0.4 nM VEGFR3, 90 minutes at RT
T1 construct: purchased Millpore Corp. (Millipore) 14-681
Procedure: (§1) Enzyme activity for VEGFR3, VEGFR2 and Flt3 were measured on the Caliper Life Sciences LC3000 (Hopkinton, Mass.). The system utilizes the principle of electroosmotic flow to separate and quantify the amount of phosphorylated-Fluorescein-labelled-peptide (product) from unphosphorylated-Fluorescein-labelled peptide (substrate). The amount of product and substrate are determined by measuring the peak heights from the electropherogram. The enzyme activity is then quantified by dividing the amount of product by the sum of the product and substrate. The inhibitory activity of a sample is measured by comparing the enzyme activity in the presence of sample versus the enzyme activity in the presence of dimethylsufoxide (DMSO). Specific assay conditions for each enzyme are listed below:
(§2) VEGFR3 assay: The peptide substrate at 1 uM (FITC-KKKKEEIYFFF-CONH2; synthesized at Tufts University, Boston, Mass.) was incubated with 400 uM of ATP, corresponding to the Michaelis-Menten (Km) constant of the enzyme/substrate reaction, and 0.4 nM of VEGFR3 (Millpore Corp., Cat. No. 14-681) for 90 minutes at RT. After 90 minutes, the reaction was stopped by the addition of 10 mM EDTA. The substrate and product were then separated on the LC3000.

VEGFR2 = target: T2, VEGFR2 (Homo sapiens, UniProt P35968); experiment: VEGFR2 enzyme activity assay (Caliper LC3000 mobility shift); settings: 160 uM ATP (Km), 1 nM VEGFR2, 90 minutes at RT
T2 construct: purchased BPS Bioscience; San Diego, Calif; 40301
Procedure: as §1
as §2, with “VEGFR2” for “VEGFR3”, “(5-FL-EEPLYWSFPAKKK-CONH2;” for “(FITC-KKKKEEIYFFF-CONH2;”, “160” for “400”, “1” for “0.4”, “VEGFR2 (BPS Bioscience; San Diego, Calif.;” for “VEGFR3 (Millpore Corp.,”, “40301)” for “14-681)”

Flt3 = target: T3, Flt3 (Homo sapiens, UniProt P36888); experiment: Flt3 enzyme activity assay (Caliper LC3000 mobility shift); settings: 350 uM ATP (Km), 3 nM Flt3, 90 minutes at RT
T3 construct: purchased BPS Bioscience; San Diego, Calif; 40225
T3 sequence (P36888 27-993): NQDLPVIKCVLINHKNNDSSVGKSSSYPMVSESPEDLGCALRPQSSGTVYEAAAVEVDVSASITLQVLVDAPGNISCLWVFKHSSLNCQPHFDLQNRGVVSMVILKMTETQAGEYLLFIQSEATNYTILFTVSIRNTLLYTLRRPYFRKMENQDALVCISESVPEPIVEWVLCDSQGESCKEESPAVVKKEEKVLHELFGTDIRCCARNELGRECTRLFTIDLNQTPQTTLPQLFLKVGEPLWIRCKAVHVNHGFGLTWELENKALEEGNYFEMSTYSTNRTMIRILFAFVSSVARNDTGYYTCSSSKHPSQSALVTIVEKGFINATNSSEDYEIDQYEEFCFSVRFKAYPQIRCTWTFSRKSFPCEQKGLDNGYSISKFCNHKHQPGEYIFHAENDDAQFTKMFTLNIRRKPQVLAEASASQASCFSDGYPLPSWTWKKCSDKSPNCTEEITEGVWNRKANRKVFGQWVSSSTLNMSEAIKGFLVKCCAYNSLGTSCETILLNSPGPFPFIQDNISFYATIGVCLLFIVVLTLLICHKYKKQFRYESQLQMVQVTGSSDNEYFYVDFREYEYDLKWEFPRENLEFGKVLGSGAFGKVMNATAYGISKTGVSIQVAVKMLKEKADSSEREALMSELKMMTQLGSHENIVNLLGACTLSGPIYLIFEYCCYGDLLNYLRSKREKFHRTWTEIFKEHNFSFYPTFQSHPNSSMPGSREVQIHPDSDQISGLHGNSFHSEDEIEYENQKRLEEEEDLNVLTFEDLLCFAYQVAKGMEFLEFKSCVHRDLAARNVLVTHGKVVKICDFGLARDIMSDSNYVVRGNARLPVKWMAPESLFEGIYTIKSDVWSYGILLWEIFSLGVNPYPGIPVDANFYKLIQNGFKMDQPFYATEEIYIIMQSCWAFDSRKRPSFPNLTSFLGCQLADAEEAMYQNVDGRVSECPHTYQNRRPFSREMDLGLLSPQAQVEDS
Procedure: as §1
as §2, with “Flt3” for “VEGFR3”, “(FITC-AHA-UEAIYAAPFAKKK-CONH2;” for “(FITC-KKKKEEIYFFF-CONH2;”, “350” for “400”, “3” for “0.4”, “Flt3 (BPS Bioscience; San Diego, Calif.;” for “VEGFR3 (Millpore Corp.,”, “40225)” for “14-681)”

T1 sequence (P35916 25-1363): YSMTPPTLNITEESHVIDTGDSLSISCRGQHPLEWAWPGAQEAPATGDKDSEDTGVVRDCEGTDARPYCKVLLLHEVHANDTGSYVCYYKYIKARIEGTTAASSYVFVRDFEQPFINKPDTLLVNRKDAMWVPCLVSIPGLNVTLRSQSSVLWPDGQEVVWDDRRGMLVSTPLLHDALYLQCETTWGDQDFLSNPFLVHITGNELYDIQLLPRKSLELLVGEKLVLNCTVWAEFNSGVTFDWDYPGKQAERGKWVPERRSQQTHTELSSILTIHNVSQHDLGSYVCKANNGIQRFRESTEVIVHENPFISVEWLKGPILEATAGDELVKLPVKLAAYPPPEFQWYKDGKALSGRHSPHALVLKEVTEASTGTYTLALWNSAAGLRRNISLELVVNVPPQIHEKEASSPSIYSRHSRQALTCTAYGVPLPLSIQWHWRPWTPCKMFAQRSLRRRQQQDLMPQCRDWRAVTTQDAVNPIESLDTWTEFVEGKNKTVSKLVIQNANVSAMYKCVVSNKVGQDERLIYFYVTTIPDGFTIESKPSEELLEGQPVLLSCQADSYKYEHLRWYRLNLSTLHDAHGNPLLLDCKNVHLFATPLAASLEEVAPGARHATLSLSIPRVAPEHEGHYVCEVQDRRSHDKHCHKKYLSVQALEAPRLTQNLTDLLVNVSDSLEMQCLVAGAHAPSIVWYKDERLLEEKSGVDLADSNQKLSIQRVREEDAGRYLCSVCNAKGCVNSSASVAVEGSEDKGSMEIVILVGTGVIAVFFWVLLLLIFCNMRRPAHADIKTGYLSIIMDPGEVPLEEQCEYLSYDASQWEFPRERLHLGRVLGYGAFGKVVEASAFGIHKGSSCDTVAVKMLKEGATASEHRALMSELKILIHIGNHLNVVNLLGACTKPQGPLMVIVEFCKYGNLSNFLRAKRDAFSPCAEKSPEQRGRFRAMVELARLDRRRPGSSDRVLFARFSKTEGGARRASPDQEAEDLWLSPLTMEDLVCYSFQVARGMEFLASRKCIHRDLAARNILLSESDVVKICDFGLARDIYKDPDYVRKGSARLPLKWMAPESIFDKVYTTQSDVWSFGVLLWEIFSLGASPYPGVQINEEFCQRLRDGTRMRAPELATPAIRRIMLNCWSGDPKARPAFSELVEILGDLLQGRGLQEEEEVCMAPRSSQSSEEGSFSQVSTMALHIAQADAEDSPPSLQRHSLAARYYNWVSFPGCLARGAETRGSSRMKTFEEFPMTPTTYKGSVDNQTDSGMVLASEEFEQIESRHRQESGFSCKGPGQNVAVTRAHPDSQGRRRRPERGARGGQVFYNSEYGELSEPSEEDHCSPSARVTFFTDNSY
T2 sequence (P35968 20-1356): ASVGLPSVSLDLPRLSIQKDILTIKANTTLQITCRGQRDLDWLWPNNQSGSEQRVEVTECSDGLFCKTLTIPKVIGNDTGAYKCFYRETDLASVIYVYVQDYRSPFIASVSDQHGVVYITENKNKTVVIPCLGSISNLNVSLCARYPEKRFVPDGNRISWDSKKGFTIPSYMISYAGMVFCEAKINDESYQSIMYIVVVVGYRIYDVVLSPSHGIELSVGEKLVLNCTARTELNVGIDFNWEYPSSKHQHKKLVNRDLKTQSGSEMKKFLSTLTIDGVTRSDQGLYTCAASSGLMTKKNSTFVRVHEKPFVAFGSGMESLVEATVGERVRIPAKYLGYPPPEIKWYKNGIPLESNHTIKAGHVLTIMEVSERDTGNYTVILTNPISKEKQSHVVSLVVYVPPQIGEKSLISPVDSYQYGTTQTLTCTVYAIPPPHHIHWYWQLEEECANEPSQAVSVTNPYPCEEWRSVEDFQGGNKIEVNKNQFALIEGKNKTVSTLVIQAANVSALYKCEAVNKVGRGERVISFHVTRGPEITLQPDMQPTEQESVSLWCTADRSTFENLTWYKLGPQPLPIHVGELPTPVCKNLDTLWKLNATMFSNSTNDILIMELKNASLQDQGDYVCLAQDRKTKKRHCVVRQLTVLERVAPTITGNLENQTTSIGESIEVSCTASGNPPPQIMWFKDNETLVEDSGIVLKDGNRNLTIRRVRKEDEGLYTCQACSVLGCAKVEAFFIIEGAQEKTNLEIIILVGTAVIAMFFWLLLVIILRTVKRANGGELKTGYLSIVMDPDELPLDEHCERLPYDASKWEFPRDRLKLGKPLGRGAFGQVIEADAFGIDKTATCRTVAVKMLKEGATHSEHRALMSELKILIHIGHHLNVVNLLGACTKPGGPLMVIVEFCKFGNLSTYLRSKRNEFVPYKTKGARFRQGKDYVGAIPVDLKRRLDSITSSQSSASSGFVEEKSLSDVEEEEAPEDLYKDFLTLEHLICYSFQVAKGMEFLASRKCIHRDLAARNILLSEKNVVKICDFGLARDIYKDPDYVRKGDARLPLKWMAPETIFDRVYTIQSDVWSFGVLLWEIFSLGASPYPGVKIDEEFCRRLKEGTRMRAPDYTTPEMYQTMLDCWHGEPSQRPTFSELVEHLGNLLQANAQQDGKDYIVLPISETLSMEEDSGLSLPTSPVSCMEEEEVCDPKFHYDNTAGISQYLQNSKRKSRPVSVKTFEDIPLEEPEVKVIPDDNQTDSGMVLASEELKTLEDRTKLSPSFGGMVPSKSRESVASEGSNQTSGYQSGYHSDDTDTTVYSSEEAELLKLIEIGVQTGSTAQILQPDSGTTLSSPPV

Compound	IC50 (VEGFR3) [nM]	IC50 (VEGFR2) [nM]	IC50 (Flt3) [nM]
Cc1cccc(C#Cc2ccnc3[nH]ccc23)c1 [compound 62]	100 to 1000	> 1000	> 1000
Cc1cccc(C#Cc2ccnc3[nH]ccc23)n1 [compound 76]	> 1000	> 1000	> 1000
Nc1ccccc1C#Cc1cnc2[nH]ccc2c1 [compound 137]	> 1000	> 1000	> 1000
C(#Cc1ccnc2[nH]ccc12)c1ncccn1 [compound 93]	> 1000	> 1000	> 1000
Cc1ccnc(C#Cc2ccnc3[nH]ccc23)c1 [compound 68]	100 to 1000	> 1000	> 1000
COC(=O)c1cccc(C#Cc2ccnc3[nH]ccc23)c1 [compound 55]	100 to 1000	> 1000	> 1000
C(#Cc1ccnc2[nH]ccc12)c1cccc(-c2ccccc2)c1 [compound 98]	> 1000	> 1000	> 1000
COc1cccc(C#Cc2ccnc3[nH]ccc23)n1 [compound 63]	100 to 1000	> 1000	> 1000
CN(C)c1ccc(C#Cc2ncnc3sc4c(c23)CCCC4)cc1 [compound 125]	> 1000	> 1000	> 1000
COc1ccc(C#Cc2ccnc3[nH]ccc23)cc1OC [compound 85]	> 1000	> 1000	> 1000
COc1cccnc1C#Cc1ccnc2[nH]ccc12 [compound 84]	> 1000	> 1000	> 1000
CCNC(=O)/C=C/c1cccc(C#Cc2ccnc3[nH]ccc23)c1 [compound 54]	100 to 1000	> 1000	> 1000
Cc1ccncc1C#Cc1ccnc2[nH]ccc12 [compound 57]	100 to 1000	100 to 1000	100 to 1000
COc1ccc(C#Cc2ccnc(NC(=O)OC(C)(C)C)c2)cc1 [compound 132]	> 1000	> 1000	> 1000
Cc1ccccc1C#Cc1ccnc2[nH]ccc12 [compound 69]	100 to 1000	> 1000	> 1000
C#Cc1ncnc2[nH]ccc12 [compound 111]	> 1000	> 1000	> 1000
FC(F)(F)Oc1ccc(C#Cc2ccnc3[nH]ccc23)cc1 [compound 120]	> 1000	> 1000	> 1000
Cc1nc(-c2ccc(C#Cc3ccnc4[nH]ccc34)cc2)no1 [compound 114]	> 1000	> 1000	> 1000
FC(F)(F)Oc1cccc(C#Cc2ccnc3[nH]ccc23)c1 [compound 123]	> 1000	> 1000	> 1000
N#Cc1ccc(C#Cc2ccnc3[nH]ccc23)cn1 [compound 110]	> 1000	> 1000	> 1000
Cc1cc(C#Cc2ccnc3[nH]ccc23)ccc1C#N [compound 94]	> 1000	> 1000	> 1000
Nc1cccc(C#Cc2cnc3[nH]ccc3c2)c1 [compound 71]	100 to 1000	> 1000	> 1000
CC(=O)Nc1ccccc1C#Cc1ccnc2[nH]ccc12 [compound 45]	100 to 1000	> 1000	> 1000
